Measured values: patent publication US10273279B2, “Protease activated receptor-1 (PAR1) derived cytoprotective polypeptides and related methods” (THE SCRIPPS RESEARCH INSTITUTE, priority 2011, dated 2019)
Where no end group is shown, it is not given here.

Tests used:
[1] = system: EA.hy.926 endothelial cells; assay: Staurosporine-induced endothelial cell apoptosis (Apopercentage dye); type: cell-based, human; conditions: 4 hrs pretreatment; 50 μM NPND, 50 μM scr-NPND or 10 μM TFLL; staurosporine 10 μM
Description: Activated Protein C (APC) conveys anti-apoptotic activity to EA.hy.926 cells that requires functional PAR1 receptor and APC binding to the endothelial protein C receptor (EPCR). See, e.g., Mosnier at al., Biochem J. 2003; 373:65-70; and Mosnier at al., Blood. 2007; 109:3161-3172.
Methods: EA.hy.926 cells (ATCC: CRL-2922) were grown in 24 well plates in DMEM (Invitrogen #12430) supplemented with glutamax (Invitrogen #35050) and 10% FBS (Hyclone #35-011-CV) in a 37° C. cell incubator with a humidified atmosphere and 5% CO2 in air until confluency. Cells were treated for 4 hrs with vehicle control, 50 μM NPND, 50 μM scr-NPND or 10 μM TFLL after which staurosporine (10 μM) and the Apopercentage dye (Biocolor) were added according the manufacturer's instructions. After 1 hr cells were washed with 2×1 ml PBS and 110 μl of the dye release agent was added to the cells. Subsequently 100 μl aliquots were transferred to a black 96 well plate and fluorescence was measured (530 nm excitation/580 nm emission). Apoptosis was expressed as a percentage of cells treated with 10 mM H2O2 for which apoptosis was set at 100%.

[2] = system: glycogen synthase kinase 3β (GSK3β) phosphorylation at Ser9; assay: GSK3β Ser9 phosphorylation in endothelial cells; type: cell-based, human
Description: To further confirm activation of Akt by the TR47-66 peptide, Akt-mediated inactivation of glycogen synthase kinase 3β (GSK3β) via phosphorylation at Ser9 was determined. GSK3β is a well-known downstream substrate for Akt.

[3] = system: ERK1/2 phosphorylation at Thr202/204 in EA.hy.926 human endothelial cells; assay: ERK1/2 phosphorylation in EA.hy.926 endothelial cells (in-cell Western); type: cell-based
Description: (§1) Activated Protein C (APC) cleaves a synthetic PAR1 tail peptide at Arg^41 and Arg^46; furthermore, APC cleaves SEAP-PAR1 mutants with the mutations R41A or R41Q but not SEAP-PAR1 with both R41Q/R46Q mutations. […] It was thus hypothesized that a new PAR1 N-terminus beginning at residue Asn-47 promotes PAR1 signaling and APC cytoprotective activities. Since phosphorylation of signaling network components is useful for monitoring activation of signaling pathways, the effects of synthetic PAR1 peptides on Akt and ERK1/2 phosphorylation in EA.hy.926 human endothelial cells were studied. Cells were treated for 0, 5 or 30 min with peptides prior to cell fixation, permeabilization of cells and subsequent immunoblotting analysis (“in-cell Western blotting”). Relative phosphorylation of Akt at Ser^473 (pSer^473-Akt) or of ERK1/2 at Thr202/204 (pERK1/2) in endothelial cells was quantified using the LI-COR Odyssey infrared (IR) fluorescence imaging system which permits “in cell” Western blots. The Odyssey permits simultaneous quantification of different antibodies that yield either red or green signals.
(§2) Methods: EA.hy.926 cells (ATCC: CRL-2922) were grown in black clear bottom 96 well plates (Nunc) in DMEM (Invitrogen #12430) supplemented with glutamax (Invitrogen #35050) and 10% FBS (Hyclone #35-011-CV) in a 37° C. cell incubator with a humidified atmosphere and 5% CO2 in air until confluency. Cells were treated for 0, 5 or 30 min with PAR1 peptides TFLL (50 μM), NPND (250 μM) or scr-NPND (250 μM) or with vehicle in serum free media. Subsequently cells were fixed with methanol free 4% para-formaldehyde (Pierce), washed with phosphate buffered saline (PBS; Invitrogen) containing 1% triton X-100 and blocked with Odyssey blocking buffer (Licor). Cells were incubated with rabbit anti-pT202/Y204 ERK1/2 (1/1000; Cell signaling D13.14.4E) or rabbit anti-pSer^473 (1/100; cell signaling D9E) with Odyssey blocking buffer. After washing with PBS/0.1% Tween (1/800), IRDye 800CW-labelled secondary goat anti-rabbit antibodies (Licor) were added to the cells in Odyssey blocking buffer and 1/10,000 Draq5 (Biostatus) for cell normalization. After final washing with PBS/0.1% Tween IR, the fluorescence of bound antibodies was determined using the Odyssey (Licor). Background fluorescence was determined by omitting the primary antibody and subtracting values for controls from all other observed values.

[4] = system: Akt phosphorylation at Ser473 in EA.hy.926 human endothelial cells; assay: Akt Ser473 phosphorylation in EA.hy.926 endothelial cells (in-cell Western); type: cell-based
Description: as §1, §2

SEAP-PAR1 = SEAP-PAR1 cleavage reporter on transfected HEK-293 cells (SEAP release); type: cell-based, human; conditions: independent of EPCR
Description: To facilitate analysis of APC-mediated PAR-1 activation, we created a full-length PAR-1 construct linked at the N-terminus to an alkaline phosphatase reporter group (SEAP). Selection of stable cell lines expressing both endothelial protein C receptor (EPCR) (wt or E86A) and SEAP-PAR1 allowed for a reliable and reproducible analysis of EPCR-dependent PAR-1 activation by APC. Mass-spec analysis of cleavage fragments generated by APC of a synthetic PAR-1 N-terminal tail peptide (TR33-62) identified both Arg^41 and Arg^46 as potential cleavage sites for APC proteolysis, as noted above. […] R41Q-SEAP-PAR1 was cleaved by APC in the presence of EPCR. This surprising result was also obtained for R41A-SEAP PAR1.
2009; 113:5970-5978. SEAP-PAR1, either in the presence or absence of wt-EPCR, were transfected into HEK-293 cells to obtain stable cells expressing SEAP-PAR1 or wt-EPCR/SEAP-PAR1. Mutations in SEAP-PAR1 were introduced using the Quickchange method (Agilent). Cells were grown in 96-wells plates to confluency in Dulbeco's modified Eagle media (DMEM): Ham's F-12 (Invitrogen) supplemented with penicillin-streptomycin-glutamine (PSG) (Gibco) and 10% fetal bovine serum (Omega) in a humidified atmosphere at 37° C. and 5% CO2 Cells were washed with Hank's balanced salt solution (HBSS; Invitrogen) supplemented with 1.3 mM CaCl2, 0.6 mM MgCl2 and 0.1% endotoxin free BSA (Calbiochem) and incubated with APC. After 60 min, SEAP release was determined using 1-step PNPP (Pierce). Values were corrected for background activity derived from the same cells incubated in the absence of APC and expressed as a percentage of total SEAP available on the cell membrane.

[5] = 0, 5 or 30 min, TFLL 50 μM, NPND 250 μM, scr-NPND 250 μM

Compound: TFLLRNPNDK (not fully specified) [reference compound]
- inhibition of staurosporine-induced endothelial cell apoptosis [1]: did not convey detectable anti-apoptotic effects
- phosphorylation of GSK3β at Ser9 ([2]; Example 7): did not result in Ser9-GSK3β phosphorylation
- ERK1/2 phosphorylation (pERK1/2) [3, 5]: quickly but transiently stimulated
- activation of ERK1/2 ([3]; Example 7): did so
- pSer473-Akt (Akt phosphorylation) [4, 5]: essentially no effect
- Ser473-Akt phosphorylation (activation of Akt) ([4]; Example 7, under the employed experimental conditions): neither thrombin nor TRAP induced

Compound: CC(C)c1ccc(Cn2ccc3c4c(N)nc(NC5CC5)nc4ccc32)cc1 [SCH79797]
- effect on TR47-66-induced Ser9-GSK3β phosphorylation ([2]; PAR1 antagonist added to TR47-66): inhibited

Compound: elastase [reference compound]
- cleavage of all PAR1 constructs on cells (SEAP-PAR1): cleaved all PAR1 constructs on cells with similar efficacy
